# Test system: cellular retinoic acid binding protein II (CRABP II)
# Test: Clinical trial: CRABP II in human epidermis after topical retinol with or without microneedle treatment (Western blotting)
# Assay type: in vivo
# Details: once a day for four days
# Excerpt: Ten subjects between the ages of 25 and 50 were recruited into a clinical trial to test the efficacy of microneedles 58 after having given informed consent to a protocol approved by an internal review board. Needles 58 that are acupuncture needles (Seirin, 0.12 mm×30 mm) were fixed in narrow diameter plastic tubes, i.e., positioning collars 60, with adhesive so that needle tips protruded approximately 250 microns beyond the end of positioning collar 60. This arrangement prevented excessive penetration during use. The protocol provided for the application on the skin of the lower back of a vehicle alone or vehicle containing either 0.05% or 0.1% retinol. In vehicle alone sites and 0.05% retinol sites microneedles 58 were applied at a density of 100 strikes per square centimeter. Adhesive rings with an internal area of 1.5 square centimeters were used to define the treatment areas. Microneedle device 10 was held in the operator's hand and lightly impacted on the subject's skin. Aliquots of twenty microliters of treatment solution were applied to the relevant sites immediately after microneedling. Sites were treated once a day for four days. On the fifth day epidermal samples were taken with an abrasive probe and placed in extraction buffer (see above). Samples were analysed with polyacrylamide gel electrophoresis and Western blotting for the presence of cellular retinoic acid binding protein II (CRABP II), a protein considered to be a marker for retinoid activity in skin.
compound,measurement,setting,value
CC1=C(/C=C/C(C)=C/C=C/C(C)=C/CO)C(C)(C)CCC1 [retinol],"CRABP II expression in epidermis, microneedle + 0.05% retinol versus 0.05% retinol alone","microneedles 100 strikes per square centimeter + 0.05% retinol, P<0.05",increased CRABP II expression above that seen with 0.05% retinol alone
same,"CRABP II expression elevation, microneedles + 0.05% retinol versus 0.1% retinol alone","microneedles 100 strikes per square centimeter + 0.05% retinol, statistically significant",greater than that associated with the 0.1% retinol alone treatment
same,CRABP II expression in epidermis,"vehicle alone, 0.05% or 0.1% retinol on skin of lower back, sampled on fifth day",dose-dependent increase in CRABP II

# — patent US20050203575A1, “Skin microactivation system and method” (Unilever Home & Personal Care USA, Division of Conopco, Inc., priority 2004, published 2005)
